Measurements published in patent US12583889B2, “Cell penetrating peptides” (Oxford University Innovation Limited, priority 2017, dated 2026).
Marks after values point to notes of the source that are not given here.

Key:
[1] = tested on: SMN2 exon 7 inclusion in GM03813 SMA patient fibroblasts; assay: Cell screening of peptide-PMO conjugates for SMN2 exon 7 inclusion in human SMA patient fibroblast cell culture; type: cell-based; conditions: for cell activity (SMN2 exon 7 inclusion) relative to peptide 14: first screen, FIG. 4, qPCR; for cell activity (SMN2 exon 7 inclusion) relative to peptide 14 / cell activity (SMN2 exon 7 inclusion): 667 nM and 2 μM; for cell activity (SMN2 exon 7 inclusion): second screen, FIG. 5, qPCR; for cell activity (SMN2 exon 7 inclusion) relative to S* peptide: FIG. 6, 4 μM, 2 μM, 1 μM, 500 nM, 250 nM
Description: In order to generate further peptide candidates containing a glycosylated Serine residue for in vivo evaluation, the inventors synthesized a range of similarly glycosylated peptides, conjugated them to the same PMO therapeutic and screened the resultant P-PMO conjugates in human SMA patient fibroblast cell culture, which assesses their ability to enter cell nuclei to give exon inclusion.
GM03813 (Coriell Institute) derived from SMA type I patient fibroblast were seeded out at 2500 cells/well in 100 μl Dulbecco's modified Eagle's medium (DMEM) with GlutaMAX and 5% fetal bovine serum (FBS) (Life Technologies, Inc.) in 96 well plates, and incubated for 16 h in a cell culture incubator (37° C., 5% CO2, 100% rel. humidity). On the next day cells were then treated with 10 μl P-PMO at different concentrations (in water) in duplicate for 24 hours. After removal of the supernatant, cells were washed once with PBS-buffer and were lysed in lysis buffer (10 mM Tris, 3 mM MgCl2, 1 mM CaCl2), 1% Triton X-100, 200 u/ml DNase I and 200 u/ml Proteinase K) for 10 min. Afterwards the lysate were transferred into a 96-well plate (Eppendorf twintec) and incubated at 75° C. for 15 min and subsequently cooled to 4° C. and used immediately. The mRNA levels of SMN2 FL, SMN2 Δ7 and GAPDH were quantified using Taqman-based qRT-PCR (Superscript® III Platinium® One Step qRT-PCR, Thermo Fisher) and SMN2 specific Primers and probes (purchased from IDT Integrated DNA Technologies). (19) SMN2 FL and Δ7 mRNAs were normalized to GAPDH. […]

human SMN2-gene = assay: Full-length SMN2 transcript qPCR in tissues of adult SMA mice after intravenous peptide-PMO conjugate; type: in vivo; conditions: for full-length SMN2 transcripts, mean expression level, Brainstem / full-length SMN2 transcripts, mean expression level, Cerebellum / full-length SMN2 transcripts, mean expression level, Cortex / full-length SMN2 transcripts, mean expression level, Liver / full-length SMN2 transcripts, mean expression level, Gastroc / full-length SMN2 transcripts, mean expression level, Quad / full-length SMN2 transcripts, mean expression level, TA / full-length SMN2 transcripts, mean expression level, Cervical / full-length SMN2 transcripts, mean expression level, Lumbar / full-length SMN2 transcripts, mean expression level, Thoracic: adult SMA mice, 2x15 mg/kg IV approx. 48 hours apart, tissue 7 days post final administration, normalised to saline treated controls; for full-length SMN2 transcripts, mean expression level, Brainstem / full-length SMN2 transcripts, mean expression level, Cerebellum / full-length SMN2 transcripts, mean expression level, Cortex: Central Nervous System; for full-length SMN2 transcripts, mean expression level, Liver: Off Target; for full-length SMN2 transcripts, mean expression level, Gastroc: Skeletal Muscle (gastrocnemius); for full-length SMN2 transcripts, mean expression level, Quad: Skeletal Muscle (quadriceps); for full-length SMN2 transcripts, mean expression level, TA: Skeletal Muscle (tibialis anterior); for full-length SMN2 transcripts, mean expression level, Cervical / full-length SMN2 transcripts, mean expression level, Lumbar / full-length SMN2 transcripts, mean expression level, Thoracic: spinal cord
Source text: Smn1tm1Hung/wt; […]; […] Tissues were harvested one week post administration. […] Statistical significance determined by Student'[…]≤0.00005. […] ID NO.151), Exons 7-8 Rev: [NT] ID NO.152). […] [NT] ID NO.154). […] PolJ Forward: [NT] ID NO.155); PolJ Reverse: [NT]

Ac-RBRRBRRBRS*FLRBRRR-G [Peptide 34]
cell activity (SMN2 exon 7 inclusion) relative to peptide 14 [1]: without a large loss in cell activity

Ac-RS*RRBRRBRBRXR-G [Peptide 59]
cell activity (SMN2 exon 7 inclusion) [1]: no significant alteration in activity levels

Ac-RXRRBRRXRQFLRXRBRXR-B [Peptide 2]
full-length SMN2 transcripts, mean expression level, Brainstem (human SMN2-gene): 1.36***
full-length SMN2 transcripts, mean expression level, Cerebellum (human SMN2-gene): 1.15*
full-length SMN2 transcripts, mean expression level, Cortex (human SMN2-gene): 1.16*
full-length SMN2 transcripts, mean expression level, Liver (human SMN2-gene): 2.91
full-length SMN2 transcripts, mean expression level, Gastroc (human SMN2-gene): 2.98****
full-length SMN2 transcripts, mean expression level, Quad (human SMN2-gene): 2.52****
full-length SMN2 transcripts, mean expression level, TA (human SMN2-gene): 3.45****
full-length SMN2 transcripts, mean expression level, Cervical (human SMN2-gene): 1.78**
full-length SMN2 transcripts, mean expression level, Lumbar (human SMN2-gene): 1.48**
full-length SMN2 transcripts, mean expression level, Thoracic (human SMN2-gene): 1.49*

Ac-RBRRBRRRS*FLRBRBRBR-G [Peptide 36]
cell activity (SMN2 exon 7 inclusion) relative to peptide 14 [1]: without a large loss in cell activity

Ac-RXRRBRRXRS*FRXRBRXR-G [Peptide 43]
cell activity (SMN2 exon 7 inclusion) relative to peptide 14 [1]: only a slightly reduced activity

Ac-RXRRBRRFLRBRXR-B [Peptide 6]
full-length SMN2 transcripts, mean expression level, Brainstem (human SMN2-gene): 1.38**
full-length SMN2 transcripts, mean expression level, Cerebellum (human SMN2-gene): 1.05
full-length SMN2 transcripts, mean expression level, Cortex (human SMN2-gene): 1.13
full-length SMN2 transcripts, mean expression level, Liver (human SMN2-gene): 2.78
full-length SMN2 transcripts, mean expression level, Gastroc (human SMN2-gene): 3.22****
full-length SMN2 transcripts, mean expression level, Quad (human SMN2-gene): 2.89***
full-length SMN2 transcripts, mean expression level, Cervical (human SMN2-gene): 0.88**
full-length SMN2 transcripts, mean expression level, Lumbar (human SMN2-gene): 1.23*
full-length SMN2 transcripts, mean expression level, Thoracic (human SMN2-gene): 1.37*

Ac-RRBRS*FLRBRBRBR-G [Peptide 26]
cell activity (SMN2 exon 7 inclusion) relative to peptide 14 [1]: slightly less active only

Ac-RXRRBRRXRRXRBRXRS*FL-G [Peptide 48]
cell activity (SMN2 exon 7 inclusion) relative to peptide 14 [1]: almost as active as the first peptide

Ac-RXRRBRRS*S*RBRXR-G [Peptide 67]
cell activity (SMN2 exon 7 inclusion) [1]: retained good activity in cells

Ac-RBRRBRRBR S*FL RBRBRBR-G [Peptide 18]
cell activity (SMN2 exon 7 inclusion) relative to peptide 14 [1]: no significant effect on cell activity

Ac-RXRRBRRXR S*FLRXRBRXR-BB [Peptide 14]
cell penetration in several compartments of the central nervous system and the skeletal muscle compared with currently available peptides 1-7 (human SMN2-gene; Table 3 data): increased
full-length SMN2 transcripts, mean expression level, Brainstem (human SMN2-gene): 1.97***
full-length SMN2 transcripts, mean expression level, Cerebellum (human SMN2-gene): 1.26
full-length SMN2 transcripts, mean expression level, Cortex (human SMN2-gene): 1.50*
full-length SMN2 transcripts, mean expression level, Liver (human SMN2-gene): 3.45
full-length SMN2 transcripts, mean expression level, Gastroc (human SMN2-gene): 2.82****
full-length SMN2 transcripts, mean expression level, Quad (human SMN2-gene): 2.45***
full-length SMN2 transcripts, mean expression level, TA (human SMN2-gene): 3.24****
full-length SMN2 transcripts, mean expression level, Cervical (human SMN2-gene): 1.23**
full-length SMN2 transcripts, mean expression level, Lumbar (human SMN2-gene): 2.23
full-length SMN2 transcripts, mean expression level, Thoracic (human SMN2-gene): 2.38**
increase in cell penetration / exon inclusion compared with the currently available peptide conjugated to the same antisense oligonucleotide (human SMN2-gene; in vivo, Table 3 data, peptide 17 versus peptide 6, peptide 14 versus peptide 2): up to 59.7%

Ac-RBRRRRRS*FLRBRBRBR-G [Peptide 37]
cell activity (SMN2 exon 7 inclusion) relative to peptide 14 [1]: without a large loss in cell activity

Ac-RXRRBRRFQILYRBRXR-B [Peptide 3]
full-length SMN2 transcripts, mean expression level, Brainstem (human SMN2-gene): 0.86
full-length SMN2 transcripts, mean expression level, Cerebellum (human SMN2-gene): 1.025
full-length SMN2 transcripts, mean expression level, Cortex (human SMN2-gene): 0.93
full-length SMN2 transcripts, mean expression level, Liver (human SMN2-gene): 4.57
full-length SMN2 transcripts, mean expression level, Gastroc (human SMN2-gene): 3.4
full-length SMN2 transcripts, mean expression level, Quad (human SMN2-gene): 3.35****
full-length SMN2 transcripts, mean expression level, TA (human SMN2-gene): 3.95***
full-length SMN2 transcripts, mean expression level, Cervical (human SMN2-gene): 0.92
full-length SMN2 transcripts, mean expression level, Lumbar (human SMN2-gene): 1.1
full-length SMN2 transcripts, mean expression level, Thoracic (human SMN2-gene): 1

Ac-RXRRBRRQFLRBRXR-B [Peptide 5]
full-length SMN2 transcripts, mean expression level, Brainstem (human SMN2-gene): 1.22
full-length SMN2 transcripts, mean expression level, Cerebellum (human SMN2-gene): 1
full-length SMN2 transcripts, mean expression level, Cortex (human SMN2-gene): 1.11
full-length SMN2 transcripts, mean expression level, Liver (human SMN2-gene): 2.73
full-length SMN2 transcripts, mean expression level, Gastroc (human SMN2-gene): 2.49****
full-length SMN2 transcripts, mean expression level, Quad (human SMN2-gene): 2.46****
full-length SMN2 transcripts, mean expression level, TA (human SMN2-gene): 2.80****
full-length SMN2 transcripts, mean expression level, Cervical (human SMN2-gene): 1.24*
full-length SMN2 transcripts, mean expression level, Lumbar (human SMN2-gene): 1.25*
full-length SMN2 transcripts, mean expression level, Thoracic (human SMN2-gene): 1.23

Ac-RXRRBRRFS^1*RBRXR-B [Peptide 74]
cell activity (SMN2 exon 7 inclusion) relative to S* peptide ([1]; third screen): Improved activity

Ac-RXRRBRRS*S*S* RBRXR-G [Peptide 68]
cell activity (SMN2 exon 7 inclusion) [1]: retained good activity in cells

Ac-RBRRBRRBRS*FLRBRBR-G [Peptide 29]
cell activity (SMN2 exon 7 inclusion) relative to peptide 14 [1]: less active than the first peptide 14

Ac-RBRRBRRBRS*FLRBRBRR-G [Peptide 33]
cell activity (SMN2 exon 7 inclusion) relative to peptide 14 [1]: without a large loss in cell activity

Ac-RXRRBRFQILYRBRXR-B [Peptide 7]
full-length SMN2 transcripts, mean expression level, Brainstem (human SMN2-gene): 1.11
full-length SMN2 transcripts, mean expression level, Cerebellum (human SMN2-gene): 0.97
full-length SMN2 transcripts, mean expression level, Cortex (human SMN2-gene): 1.01
full-length SMN2 transcripts, mean expression level, Liver (human SMN2-gene): 3.19
full-length SMN2 transcripts, mean expression level, Gastroc (human SMN2-gene): 2.92****
full-length SMN2 transcripts, mean expression level, Quad (human SMN2-gene): 2.80****
full-length SMN2 transcripts, mean expression level, TA (human SMN2-gene): 3.34****
full-length SMN2 transcripts, mean expression level, Cervical (human SMN2-gene): 1.26
full-length SMN2 transcripts, mean expression level, Lumbar (human SMN2-gene): 0.97
full-length SMN2 transcripts, mean expression level, Thoracic (human SMN2-gene): 1.33

Ac-RXRRBRRZS*RBRXR-B [Peptide 73]
cell activity (SMN2 exon 7 inclusion) at low doses ([1]; third screen, FIG. 6): good activity at low doses
cell activity (SMN2 exon 7 inclusion) relative to S* peptide ([1]; third screen): greatly improved alteration in activity levels

Ac-RBRBRS*RBRBR-G [Peptide 70]
cell activity (SMN2 exon 7 inclusion) [1]: remarkably good activity

Ac-RXRXRS*RXRXR-G [Peptide 71]
cell activity (SMN2 exon 7 inclusion) [1]: remarkably good activity

Ac-RRBRRBRS*FLRBRBRBR-G [Peptide 24]
cell activity (SMN2 exon 7 inclusion) relative to peptide 14 [1]: less active than the first peptide 14

Ac-RXRRBRRYQFLIRBRXR-B [Peptide 4]
full-length SMN2 transcripts, mean expression level, Brainstem (human SMN2-gene): 0.98
full-length SMN2 transcripts, mean expression level, Cerebellum (human SMN2-gene): 0.96
full-length SMN2 transcripts, mean expression level, Cortex (human SMN2-gene): 1.1
full-length SMN2 transcripts, mean expression level, Liver (human SMN2-gene): 3.26
full-length SMN2 transcripts, mean expression level, Gastroc (human SMN2-gene): 3.64****
full-length SMN2 transcripts, mean expression level, Quad (human SMN2-gene): 2.70****
full-length SMN2 transcripts, mean expression level, TA (human SMN2-gene): 4.23****
full-length SMN2 transcripts, mean expression level, Cervical (human SMN2-gene): 1.14*
full-length SMN2 transcripts, mean expression level, Lumbar (human SMN2-gene): 1
full-length SMN2 transcripts, mean expression level, Thoracic (human SMN2-gene): 1.12

Ac-RXRRBRRXRYQFLIRXRBRXR-B [Peptide 1]
full-length SMN2 transcripts, mean expression level, Brainstem (human SMN2-gene): 1.48***
full-length SMN2 transcripts, mean expression level, Cerebellum (human SMN2-gene): 1.25*
full-length SMN2 transcripts, mean expression level, Cortex (human SMN2-gene): 1.29**
full-length SMN2 transcripts, mean expression level, Liver (human SMN2-gene): 2.81
full-length SMN2 transcripts, mean expression level, Gastroc (human SMN2-gene): 3.03***
full-length SMN2 transcripts, mean expression level, Quad (human SMN2-gene): 3.37***
full-length SMN2 transcripts, mean expression level, TA (human SMN2-gene): 3.30***
full-length SMN2 transcripts, mean expression level, Cervical (human SMN2-gene): 1.50***
full-length SMN2 transcripts, mean expression level, Lumbar (human SMN2-gene): 1.28***
full-length SMN2 transcripts, mean expression level, Thoracic (human SMN2-gene): 1.45***

Ac-RXRRS*RRBRBRXR-G [Peptide 58]
cell activity (SMN2 exon 7 inclusion) [1]: no significant alteration in activity levels

Ac-RXRRBRRXRS*RXRBRXR-G [Peptide 44]
cell activity (SMN2 exon 7 inclusion) relative to peptide 14 [1]: no significant effect on cell activity
